Biological target: T1, TLR7 (Homo sapiens, UniProt Q9NYK1)
T1 construct: Fresh blood was collected from normal human donors; endogenous in cells; host or cells: human PBMCs from fresh donor blood
T1 sequence (Q9NYK1 27-1049): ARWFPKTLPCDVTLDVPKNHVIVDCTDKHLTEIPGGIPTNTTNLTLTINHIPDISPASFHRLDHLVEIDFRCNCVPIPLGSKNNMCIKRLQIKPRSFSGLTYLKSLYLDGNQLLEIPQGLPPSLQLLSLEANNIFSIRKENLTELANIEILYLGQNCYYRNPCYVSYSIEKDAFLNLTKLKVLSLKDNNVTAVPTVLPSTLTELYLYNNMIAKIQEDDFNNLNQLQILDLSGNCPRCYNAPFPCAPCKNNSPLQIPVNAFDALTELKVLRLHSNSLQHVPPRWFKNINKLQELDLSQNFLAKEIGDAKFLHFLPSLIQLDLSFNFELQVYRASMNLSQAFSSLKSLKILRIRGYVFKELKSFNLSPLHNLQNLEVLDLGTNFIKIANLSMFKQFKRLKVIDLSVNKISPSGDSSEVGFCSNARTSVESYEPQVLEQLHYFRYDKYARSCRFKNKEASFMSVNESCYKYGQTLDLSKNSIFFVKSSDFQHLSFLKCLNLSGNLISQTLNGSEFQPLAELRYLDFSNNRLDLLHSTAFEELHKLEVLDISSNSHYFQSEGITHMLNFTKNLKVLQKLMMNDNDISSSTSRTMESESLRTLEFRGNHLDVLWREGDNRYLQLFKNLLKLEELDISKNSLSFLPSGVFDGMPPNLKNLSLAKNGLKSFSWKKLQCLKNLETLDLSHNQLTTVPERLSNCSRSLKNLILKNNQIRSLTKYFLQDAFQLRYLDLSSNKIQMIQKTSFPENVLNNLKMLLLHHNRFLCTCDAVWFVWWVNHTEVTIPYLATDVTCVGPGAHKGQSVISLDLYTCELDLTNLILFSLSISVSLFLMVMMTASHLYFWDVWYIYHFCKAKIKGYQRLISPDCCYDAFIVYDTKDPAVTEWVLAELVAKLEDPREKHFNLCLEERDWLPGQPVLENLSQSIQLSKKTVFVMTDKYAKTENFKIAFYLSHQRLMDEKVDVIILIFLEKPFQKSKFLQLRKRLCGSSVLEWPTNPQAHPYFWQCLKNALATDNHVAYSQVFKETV
Assay: huPBMC TLR7 Antagonist IFNα Assay
Type: cell-based
Conditions: human PBMCs stimulated with ssRNA40 10 μg/mL (DOTAP), 14-16 hrs; IFNα2b AlphaLISA read-out
Procedure: Compounds were generally serially diluted (1/3) in DMSO and plated on sterile 384 well tissue culture plates and stored until ready for use. Each ten-point dilution was typically plated in triplicate in parallel rows.
Fresh blood was collected from normal human donors underwritten informed consent in heparinized syringes on the morning of the assay. The blood was diluted in RPMI-1640 medium and the white blood cells were separated from red blood cells by centrifugation (800 g 15′ 0 acceleration, 0 brake) on a Ficoll cushion. Peripheral blood mononuclear cells (PBMCs) were separated from platelets by a series of low-speed centrifugations (1000RPM 10′) in PBS+5% HI—FBS and 1 mM EDTA. Purified PBMCs were re-suspended in assay medium (RPMI-1640 w Glutamax (Invitrogen) supplemented with 5% HI—FBS, 10 mM HEPES, 50 uM β-mercaptoethanol, and 100 mG/L penicillin/streptomycin cocktail). Viable PBMCs were counted on a hemacytometer and kept on ice until ready for plating.
A 4× concentration (4 ug/ml or 40 ug/ml for TLR8 or TLR7 assays, respectively) of the TLR7/8 agonist ssRNA40 (IDT) was complexed with 10% DOTAP (Roche) in assay medium for 30 min prior to addition to the PBMC suspension (5 million cells/ml). After addition, the final concentration of ssRNA40 in the TLR7/8 stimulated PBMC suspension was 1 μg/ml for TLR8 assay, and 10 μg/mL for the TLR7 assay. The final DOTAP concentration was 2.5%. Diluted PBMCs (5 million cells/ml) were treated with 4×TLR9 agonist ODN2216 (Invivogen). Final concentration of ODN2216 in TLR9 stimulated PBMC suspension was 0.3 μM.
Agonist stimulated PBMCs were plated on the compound treated 384 well plates at 150,000 cells/well. Un-stimulated PBMCs were plated as controls on each plate. Plating volume was 40 μL per well. DMSO concentration in each well was 0.25%.
A separate plate, without compounds, with titrations of ssRNA40 and ODN2216 was included in every assay to measure agonist response of each donor's PBMC prep. Assay plates were placed in a tissue culture incubator (37° C., 5% CO2) for 14-16 hrs. After this incubation, the plates were centrifuged and stored at −20° C. until they were assayed.
IL-6 TR-FRET Assay for TLR8 activity: • 1) Cisbio Human IL-6 kit, 20,000 tests (62TNFPEC), and GNF High-Base TC 384 well plates (cat #789163G) were used; • 2) the Anti-TIL-6 Cryptate conjugate and the Anti-IL-6 XL665 conjugate were diluted 1:20 in Reconstitution Buffer; • 3) a 1:1 mixture of 3 μl/well Anti-IL-6 Cryptate conjugate and 3 μl/well Anti-IL-6 XL665 conjugate was prepared; • 4) 6 μl/well HTRF dilution mastermix was added to 6 μl of transferred supernatant samples in proxiplates; • 5) The plates were incubated for 3 hrs at rt in the dark; and • 6) the levels of IL-6 production was measured using an Envision plate reader (665 nm (emmission)/590 nm (excitation)) with HTRF settings and ratiometric read-out: (XL665 emission/Eu Cryptate emission)×10,000. IFNα2b AlphaLISA Assay for TLR7 or TLR9 activity After thawing the assay plates, 6 μL of supernatant samples were transferred to a low-volume AlphaPlate 384SW (Perkin-Elmer). The concentration of IFNα in supernatants was measured using the IFNα2b AlphaLISA Assay (Perkin-Elmer: AL297F). 3 μL of IFNα acceptor beads/biotinylated antibody solution was added first, using laboratory automation. After an hour incubation, […] of streptavidin […] bead solution was added. The plates containing this mixture were incubated in the dark for an hour and read on an appropriate plate reader at reading parameters set by the manufacturer. (Envision, EnSpire: Perkin-Elmer).

SMILES | IC50 [nM]
Cc1cc(N2CCc3c(c(C)nn3CC34CCC(N)(CC3)CC4)C2)c2ccncc2n1 [Compound No. 3, 4-((3-methyl-5-(2-methyl-1,7-naphthyridin-4-yl)-4,5,6,7-tetrahydro-1H-pyrazolo[4,3-c]pyridin-1-yl)methyl)bicyclo[2.2.2]octan-1-amine] | 54
Cc1cc(N2CCc3c(c(C)nn3CC34CCC(NC(=O)[C@@H]5COCCN5)(CC3)CC4)C2)c2cnn(C)c2n1 [Compound No. 8, (S)—N-(4-((5-(1,6-dimethyl-1H-pyrazolo[3,4-b]pyridin-4-yl)-3-methyl-4,5,6,7-tetrahydro-1H-pyrazolo[4,3-c]pyridin-1-yl)methyl)bicyclo[2.2.2]octan-1-yl)morpholine-3-carboxamide] | 4
Cc1nc(N2CCc3c(c(C)nn3CC34CCC(N5CC6(COC6)C5)(CC3)CC4)C2)c2c(n1)c(C)nn2C [Compound No. 10, 6-(4-((3-methyl-5-(1,3,5-trimethyl-1H-pyrazolo[4,3-d]pyrimidin-7-yl)-4,5,6,7-tetrahydro-1H-pyrazolo[4,3-c]pyridin-1-yl)methyl)bicyclo[2.2.2]octan-1-yl)-2-oxa-6-azaspiro[3.3]heptane] | 56
Cc1nc(N2CCc3c(c(C)nn3CC34CCC(N)(CC3)CC4)C2)c2c(n1)c(C)nn2C [Compound No. 26, 4-((3-methyl-5-(1,3,5-trimethyl-1H-pyrazolo[4,3-d]pyrimidin-7-yl)-4,5,6,7-tetrahydro-1H-pyrazolo[4,3-c]pyridin-1-yl)methyl)bicyclo[2.2.2]octan-1-amine] | 644
Cc1cc(N2CCc3c(c(C)nn3CC34CCC(N5CCN(C)C(=O)C5)(CC3)CC4)C2)c2cnn(C)c2n1 [Compound No. 104, 4-(4-((5-(1,6-dimethyl-1H-pyrazolo[3,4-b]pyridin-4-yl)-3-methyl-4,5,6,7-tetrahydro-1H-pyrazolo[4,3-c]pyridin-1-yl)methyl)bicyclo[2.2.2]octan-1-yl)-1-methylpiperazin-2-one] | 61
[2H]C([2H])([2H])n1ncc2c(N3CCc4c(c(C)nn4CC45CCC(N)(CC4)CC5)C3)cc(C)nc21 [Compound No. 140, 4-((3-methyl-5-(6-methyl-1-(methyl-d3)-1H-pyrazolo[3,4-b]pyridin-4-yl)-4,5,6,7-tetrahydro-1H-pyrazolo[4,3-c]pyridin-1-yl)methyl)bicyclo[2.2.2]octan-1-amine] | 27
Cc1cc(N2CCc3c(c(C)nn3CC34CCC(NC(=O)OC(C)(C)C)(CC3)CC4)C2)c2ccncc2n1 [Compound No. 147, tert-butyl (4-((3-methyl-5-(2-methyl-1,7-naphthyridin-4-yl)-4,5,6,7-tetrahydro-1H-pyrazolo[4,3-c]pyridin-1-yl)methyl)bicyclo[2.2.2]octan-1-yl)carbamate] | 33

Results, then the compound that gave them:

IC50 [nM] | SMILES
19 | Cc1cc(N2CCc3c(c(C)nn3CC34CCC(NC5COC5)(CC3)CC4)C2)c2cnn(C)c2n1 [Compound No. 6, N-(4-((5-(1,6-dimethyl-1H-pyrazolo[3,4-b]pyridin-4-yl)-3-methyl-4,5,6,7-tetrahydro-1H-pyrazolo[4,3-c]pyridin-1-yl)methyl)bicyclo[2.2.2]octan-1-yl)oxetan-3-amine]
15 | Cc1cc(N2CCc3c(c(C)nn3CC34CCC(NC(=O)[C@H]5COCCN5)(CC3)CC4)C2)c2cnn(C)c2n1 [Compound No. 9, (R)—N-(4-((5-(1,6-dimethyl-1H-pyrazolo[3,4-b]pyridin-4-yl)-3-methyl-4,5,6,7-tetrahydro-1H-pyrazolo[4,3-c]pyridin-1-yl)methyl)bicyclo[2.2.2]octan-1-yl)morpholine-3-carboxamide]
16 | Cc1cc(N2CCc3c(c(C)nn3CC34CCC(N(C)C)(CC3)CC4)C2)c2cnn(C)c2n1 [Compound No. 43, 4-((5-(1,6-dimethyl-1H-pyrazolo[3,4-b]pyridin-4-yl)-3-methyl-4,5,6,7-tetrahydro-1H-pyrazolo[4,3-c]pyridin-1-yl)methyl)-N,N-dimethylbicyclo[2.2.2]octan-1-amine]
21 | Cc1cc(N2CCc3c(c(C)nn3CC34CCC(N5CCN(C)CC5=O)(CC3)CC4)C2)c2cnn(C)c2n1 [Compound No. 108, 1-(4-((5-(1,6-dimethyl-1H-pyrazolo[3,4-b]pyridin-4-yl)-3-methyl-4,5,6,7-tetrahydro-1H-pyrazolo[4,3-c]pyridin-1-yl)methyl)bicyclo[2.2.2]octan-1-yl)-4-methylpiperazin-2-one]
6 | Cc1cc(N2CCc3c(c(C)nn3CC34CCC(n5ccnc5)(CC3)CC4)C2)c2cnn(C)c2n1 [Compound No. 119, 1-((4-(1H-imidazol-1-yl)bicyclo[2.2.2]octan-1-yl)methyl)-5-(1,6-dimethyl-1H-pyrazolo[3,4-b]pyridin-4-yl)-3-methyl-4,5,6,7-tetrahydro-1H-pyrazolo[4,3-c]pyridine]
12 | Cc1cc(N2CCc3c(c(C)nn3CC34CCC(NC(=O)CN5CC(F)C5)(CC3)CC4)C2)c2cnn(C)c2n1 [Compound No. 133, N-(4-((5-(1,6-dimethyl-1H-pyrazolo[3,4-b]pyridin-4-yl)-3-methyl-4,5,6,7-tetrahydro-1H-pyrazolo[4,3-c]pyridin-1-yl)methyl)bicyclo[2.2.2]octan-1-yl)-2-(3-fluoroazetidin-1-yl)acetamide]
10 | Cc1cc(N2CCc3c(c(C)nn3CC34CCC(NC(=O)CO)(CC3)CC4)C2)c2cnn(C)c2n1 [Compound No. 135, N-(4-((5-(1,6-dimethyl-1H-pyrazolo[3,4-b]pyridin-4-yl)-3-methyl-4,5,6,7-tetrahydro-1H-pyrazolo[4,3-c]pyridin-1-yl)methyl)bicyclo[2.2.2]octan-1-yl)-2-hydroxyacetamide]
6 | Cc1cc(N2CCc3c(c(C)nn3CC34CCC(NC(=O)CN5CC(O)C5)(CC3)CC4)C2)c2cnn(C)c2n1 [Compound No. 136, N-(4-((5-(1,6-dimethyl-1H-pyrazolo[3,4-b]pyridin-4-yl)-3-methyl-4,5,6,7-tetrahydro-1H-pyrazolo[4,3-c]pyridin-1-yl)methyl)bicyclo[2.2.2]octan-1-yl)-2-(3-hydroxyazetidin-1-yl)acetamide]

Reference: patent US20240376099A1, “COMPOUNDS AND COMPOSITIONS AS INHIBITORS OF ENDOSOMAL TOLL-LIKE RECEPTORS” (Novartis AG, priority 2016, published 2024)
